In brackets after ≈: the same amount, converted by molar mass.
Legend:
Mus musculus [1] = assay: Neurotoxicity in CD1 mouse assessed as motor impairment at 32 to 64 mg/kg, ip measured after 30 to 180 mins by rotarod test; assay type: toxicity, organism-based; design: route intraperitoneal; conditions: in vivo
[2] = target: T1, 5-hydroxytryptamine receptor 2B (Homo sapiens, UniProt P41595); assay: Antagonist activity at human 5HT2B receptor; assay type: functional
Cytochrome P450 2E1 [3] = target: T2, Cytochrome P450 2E1 (Homo sapiens, UniProt P05181); assay: Inhibition of CYP2E1 in human liver microsomes; assay type: ADME, Microsome
T2 sequence (P05181 whole entry): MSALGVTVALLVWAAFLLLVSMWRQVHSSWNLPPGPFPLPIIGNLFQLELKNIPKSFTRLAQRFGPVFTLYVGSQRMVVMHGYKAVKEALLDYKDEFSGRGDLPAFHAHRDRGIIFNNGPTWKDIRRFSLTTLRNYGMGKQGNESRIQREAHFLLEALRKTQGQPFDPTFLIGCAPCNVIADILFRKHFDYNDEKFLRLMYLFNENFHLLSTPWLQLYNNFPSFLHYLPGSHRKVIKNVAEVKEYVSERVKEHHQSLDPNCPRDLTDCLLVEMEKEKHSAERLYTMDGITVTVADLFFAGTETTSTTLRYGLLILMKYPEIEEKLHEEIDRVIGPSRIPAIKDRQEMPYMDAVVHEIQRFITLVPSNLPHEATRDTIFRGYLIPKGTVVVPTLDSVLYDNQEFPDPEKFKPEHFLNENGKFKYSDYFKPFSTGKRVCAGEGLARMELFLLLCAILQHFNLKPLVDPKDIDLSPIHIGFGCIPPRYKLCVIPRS

Cytochrome P450 1A2 [4] = target: T3, Cytochrome P450 1A2 (Homo sapiens, UniProt P05177); assay: Inhibition of human recombinant CYP1A2; assay type: ADME
T3 sequence (P05177 whole entry): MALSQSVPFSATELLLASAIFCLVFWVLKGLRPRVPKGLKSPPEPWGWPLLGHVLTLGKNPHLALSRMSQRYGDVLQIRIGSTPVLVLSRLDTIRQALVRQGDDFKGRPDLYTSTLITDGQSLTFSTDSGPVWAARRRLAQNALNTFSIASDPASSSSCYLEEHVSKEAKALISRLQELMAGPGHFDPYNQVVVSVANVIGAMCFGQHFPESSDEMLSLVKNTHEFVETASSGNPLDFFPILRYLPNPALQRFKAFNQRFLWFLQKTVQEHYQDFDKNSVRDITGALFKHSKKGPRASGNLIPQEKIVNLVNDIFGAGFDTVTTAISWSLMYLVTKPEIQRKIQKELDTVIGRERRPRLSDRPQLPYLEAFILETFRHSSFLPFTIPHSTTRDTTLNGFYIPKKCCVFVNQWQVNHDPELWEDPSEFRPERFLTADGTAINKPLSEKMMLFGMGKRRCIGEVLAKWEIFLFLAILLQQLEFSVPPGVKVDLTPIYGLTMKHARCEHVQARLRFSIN

Cytochrome P450 2D6 [5] = target: T4, Cytochrome P450 2D6 (Homo sapiens, UniProt P10635); assay: Inhibition of human recombinant CYP2D6; assay type: ADME
T4 sequence (P10635 whole entry): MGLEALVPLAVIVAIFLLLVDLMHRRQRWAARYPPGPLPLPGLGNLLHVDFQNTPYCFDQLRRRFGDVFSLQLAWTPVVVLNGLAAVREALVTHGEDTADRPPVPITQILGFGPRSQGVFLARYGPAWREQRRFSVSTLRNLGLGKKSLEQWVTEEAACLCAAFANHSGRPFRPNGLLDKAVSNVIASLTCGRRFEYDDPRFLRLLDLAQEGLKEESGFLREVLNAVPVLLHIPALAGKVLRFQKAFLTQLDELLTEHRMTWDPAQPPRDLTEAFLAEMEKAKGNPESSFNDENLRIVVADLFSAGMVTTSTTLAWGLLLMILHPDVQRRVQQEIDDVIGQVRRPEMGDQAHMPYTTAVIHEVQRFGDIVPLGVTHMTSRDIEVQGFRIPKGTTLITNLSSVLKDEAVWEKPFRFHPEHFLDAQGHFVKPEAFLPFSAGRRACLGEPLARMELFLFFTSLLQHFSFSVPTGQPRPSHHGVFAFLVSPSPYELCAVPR

[6] = Dissociation constant, pKa of the compound; assay type: physicochemical
[7] = Lipophilicity, log D of the compound by PH-metrivc technique; assay type: physicochemical; conditions: octanol/water
[8] = target: T1, 5-hydroxytryptamine receptor 2B; assay: Binding affinity to human 5HT2B receptor
Mus musculus [9] = assay: Antiallodynic activity in ip dosed CD1 mouse partial sciatic nerve ligation model assessed as inhibition of mechanical allodynia administered 30 mins by von Frey test; assay type: functional
[10] = Apparent permeability across human Caco2 cells at 10 uM after 2 hrs; assay type: ADME, cell-based; conditions: Caco-2
[11] = Partition coefficient, log P of the compound by PH-metrivc technique; assay type: physicochemical; conditions: octanol/water
[12] = Thermodynamic solubility of the compound in phosphate buffer at pH 7.4; assay type: physicochemical; conditions: read-out: Therm_solubility
Cytochrome P450 1A2 [13] = target: T3, Cytochrome P450 1A2; assay: Inhibition of CYP1A2 in human liver microsomes; assay type: ADME, Microsome
Mus musculus [14] = assay: Inhibition of capsaicin-induced mechanical hypersensitivity in CD1 mouse assessed as paw withdrawal latency at 32 mg/kg, ip administered 15 mins prior to capsaicin challenge measured 30 mins post capsaicin challenge; assay type: functional; conditions: route intraperitoneal
[15] = Intrinsic clearance in human liver microsomes assessed as per mg of protein at 10 uM; assay type: ADME, Microsome; conditions: read-out: CLH
Cytochrome P450 2C8 [16] = target: T5, Cytochrome P450 2C8 (Homo sapiens, UniProt P10632); assay: Inhibition of human recombinant CYP2C8; assay type: ADME
T5 sequence (P10632 whole entry): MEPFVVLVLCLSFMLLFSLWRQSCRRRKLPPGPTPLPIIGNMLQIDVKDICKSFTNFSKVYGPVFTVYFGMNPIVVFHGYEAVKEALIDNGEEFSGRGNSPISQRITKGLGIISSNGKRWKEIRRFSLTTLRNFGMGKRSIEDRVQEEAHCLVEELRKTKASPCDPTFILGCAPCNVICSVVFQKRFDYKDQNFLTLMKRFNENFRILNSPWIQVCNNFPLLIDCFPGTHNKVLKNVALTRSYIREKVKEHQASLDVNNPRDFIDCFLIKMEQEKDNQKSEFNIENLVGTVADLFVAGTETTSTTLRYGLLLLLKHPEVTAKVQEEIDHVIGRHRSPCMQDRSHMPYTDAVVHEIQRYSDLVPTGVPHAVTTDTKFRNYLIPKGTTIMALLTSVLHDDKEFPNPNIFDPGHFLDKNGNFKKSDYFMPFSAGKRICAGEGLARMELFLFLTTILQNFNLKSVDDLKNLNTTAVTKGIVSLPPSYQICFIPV

Cytochrome P450 2B6 [17] = target: T6, Cytochrome P450 2B6 (Homo sapiens, UniProt P20813); assay: Inhibition of human recombinant CYP2B6; assay type: ADME
T6 sequence (P20813 whole entry): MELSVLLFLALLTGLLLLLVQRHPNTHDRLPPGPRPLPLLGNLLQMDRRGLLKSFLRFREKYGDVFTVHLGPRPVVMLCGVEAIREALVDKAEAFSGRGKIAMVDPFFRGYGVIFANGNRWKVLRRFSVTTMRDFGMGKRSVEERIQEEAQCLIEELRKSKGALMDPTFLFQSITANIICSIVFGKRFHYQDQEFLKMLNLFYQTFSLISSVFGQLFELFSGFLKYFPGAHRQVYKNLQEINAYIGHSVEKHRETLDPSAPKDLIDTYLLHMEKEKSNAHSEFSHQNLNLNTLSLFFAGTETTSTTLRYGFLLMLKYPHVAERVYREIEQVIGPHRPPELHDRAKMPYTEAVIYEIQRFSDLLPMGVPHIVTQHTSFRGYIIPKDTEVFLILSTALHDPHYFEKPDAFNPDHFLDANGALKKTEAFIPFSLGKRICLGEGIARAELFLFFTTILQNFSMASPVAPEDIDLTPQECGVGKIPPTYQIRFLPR

Cytochrome P450 2D6 [18] = target: T4, Cytochrome P450 2D6; assay: Inhibition of CYP2D6 in human liver microsomes; assay type: ADME, Microsome
Cytochrome P450 2C8 [19] = target: T5, Cytochrome P450 2C8; assay: Inhibition of CYP2C8 in human liver microsomes; assay type: ADME, Microsome
Cytochrome P450 2C9 [20] = target: T7, Cytochrome P450 2C9 (Homo sapiens, UniProt P11712); assay: Inhibition of human recombinant CYP2C9; assay type: ADME
T7 sequence (P11712 whole entry): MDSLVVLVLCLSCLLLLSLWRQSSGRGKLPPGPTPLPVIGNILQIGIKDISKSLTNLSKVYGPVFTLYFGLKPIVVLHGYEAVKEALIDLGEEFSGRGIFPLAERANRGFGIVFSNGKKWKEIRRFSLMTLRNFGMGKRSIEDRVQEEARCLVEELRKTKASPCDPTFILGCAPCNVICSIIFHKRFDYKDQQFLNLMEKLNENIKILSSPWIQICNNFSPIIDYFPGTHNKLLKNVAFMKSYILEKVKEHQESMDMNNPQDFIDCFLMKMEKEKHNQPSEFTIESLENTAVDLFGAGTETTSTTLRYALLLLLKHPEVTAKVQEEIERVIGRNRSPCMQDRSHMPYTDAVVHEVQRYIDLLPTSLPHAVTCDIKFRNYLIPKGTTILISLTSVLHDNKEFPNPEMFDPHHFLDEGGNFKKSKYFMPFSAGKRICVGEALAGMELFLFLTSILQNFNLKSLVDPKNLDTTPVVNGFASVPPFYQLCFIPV

Mus musculus [21] = assay: Analgesic activity in CD1 mouse assessed as inhibition of capsaicin-induced mechanical hypersensitivity at 16 mg/kg, ip administered 15 mins prior to capsaicin challenge measured 30 mins post capsaicin challenge; assay type: functional; conditions: route intraperitoneal
[22] = Displacement of [3H]di-o-tolylguanidine from sigma 2 receptor in guinea pig brain membranes after 120 mins by scintillation counter; assay type: cell membranes, Cavia porcellus, Membrane
Cytochrome P450 2B6 [23] = target: T6, Cytochrome P450 2B6; assay: Inhibition of CYP2B6 in human liver microsomes; assay type: ADME, Microsome
Cytochrome P450 2C19 [24] = target: T8, Cytochrome P450 2C19 (Homo sapiens, UniProt P33261); assay: Inhibition of CYP2C19 in human liver microsomes; assay type: ADME, Microsome
T8 sequence (P33261 whole entry): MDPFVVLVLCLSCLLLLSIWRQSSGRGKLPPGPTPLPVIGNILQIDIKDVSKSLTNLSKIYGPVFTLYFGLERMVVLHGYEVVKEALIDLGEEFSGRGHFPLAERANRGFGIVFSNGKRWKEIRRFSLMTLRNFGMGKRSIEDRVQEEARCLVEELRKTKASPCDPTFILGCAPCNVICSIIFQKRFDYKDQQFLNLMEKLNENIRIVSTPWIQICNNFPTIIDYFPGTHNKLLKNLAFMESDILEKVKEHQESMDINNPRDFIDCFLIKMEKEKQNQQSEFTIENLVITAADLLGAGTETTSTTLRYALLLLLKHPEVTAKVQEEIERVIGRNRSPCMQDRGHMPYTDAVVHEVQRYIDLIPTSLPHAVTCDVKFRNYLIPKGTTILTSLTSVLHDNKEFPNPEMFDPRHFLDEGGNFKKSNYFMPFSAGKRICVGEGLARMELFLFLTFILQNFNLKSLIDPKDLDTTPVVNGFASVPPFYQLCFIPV

[25] = AUC in CD1 mouse at 10 mg/kg, po; assay type: ADME, organism-based; design: dose 10 mg/kg, route oral; conditions: plasma
Mus musculus [26] = assay: Antihyperalgesic activity in ip dosed CD1 mouse partial sciatic nerve ligation model assessed as inhibition of thermal hyperalgesia administered 45 mins by plantar test; assay type: functional
Cytochrome P450 2C19 [27] = target: T8, Cytochrome P450 2C19; assay: Inhibition of human recombinant CYP2C19; assay type: ADME
Cytochrome P450 2C9 [28] = target: T7, Cytochrome P450 2C9; assay: Inhibition of CYP2C9 in human liver microsomes; assay type: ADME, Microsome
[29] = Binding affinity to rat sigma 2 receptor
Cytochrome P450 2E1 [30] = target: T2, Cytochrome P450 2E1; assay: Inhibition of human recombinant CYP2E1; assay type: ADME
Mus musculus [31] = assay: Cmax in CD1 mouse at 10 mg/kg, po at 0.5 hrs; assay type: ADME, organism-based; design: dose 10 mg/kg, route oral; conditions: in vivo

T1 sequence (P41595 whole entry): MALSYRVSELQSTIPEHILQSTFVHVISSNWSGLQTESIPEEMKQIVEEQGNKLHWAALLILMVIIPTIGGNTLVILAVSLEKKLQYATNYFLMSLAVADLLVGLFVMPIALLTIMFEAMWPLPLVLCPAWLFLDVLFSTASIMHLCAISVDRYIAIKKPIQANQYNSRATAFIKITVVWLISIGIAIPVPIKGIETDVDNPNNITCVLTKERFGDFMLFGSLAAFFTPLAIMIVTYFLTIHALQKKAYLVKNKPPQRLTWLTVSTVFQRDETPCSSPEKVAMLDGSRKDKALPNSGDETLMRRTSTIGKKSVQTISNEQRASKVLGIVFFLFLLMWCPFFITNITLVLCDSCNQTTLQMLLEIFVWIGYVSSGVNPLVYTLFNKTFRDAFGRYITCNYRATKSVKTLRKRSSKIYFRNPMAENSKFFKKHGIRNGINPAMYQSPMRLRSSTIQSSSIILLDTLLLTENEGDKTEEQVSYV

- IC50 [2]: 4.7 µM
- IC50 (Cytochrome P450 2E1 [3]): > 10 µM
- IC50 (Cytochrome P450 1A2 [4]): > 10 µM
- IC50 (Cytochrome P450 2D6 [5]): > 10 µM
- pKa [6]: 6.5
- logD [7]: 3.4
- Ki [8]: 0.328 µM
- Papp at 2 h, 10 µM [10]: 37 ×10⁻⁶ cm/s
- logP [11]: 3.5
- solubility thermodynamic [12]: 200 µg/mL (≈ 593 µM)
- IC50 (Cytochrome P450 1A2 [13]): > 10 µM
- microsomal CLint at 10 µM [15]: 3 µL/min/mg
- IC50 (Cytochrome P450 2C8 [16]): > 10 µM
- IC50 (Cytochrome P450 2B6 [17]): > 10 µM
- IC50 (Cytochrome P450 2D6 [18]): > 10 µM
- IC50 (Cytochrome P450 2C8 [19]): > 10 µM
- IC50 (Cytochrome P450 2C9 [20]): > 10 µM
- Ki [22]: > 1 µM
- IC50 (Cytochrome P450 2B6 [23]): > 10 µM
- IC50 (Cytochrome P450 2C19 [24]): > 10 µM
- AUC [25]: 958 ng·h/mL
- IC50 (Cytochrome P450 2C19 [27]): > 10 µM
- IC50 (Cytochrome P450 2C9 [28]): > 10 µM
- Ki [29]: 9.3 µM
- IC50 (Cytochrome P450 2E1 [30]): > 10 µM
- Cmax (Mus musculus [31]): 62 ng/mL
SMILES: Cc1cc(OCCN2CCOCC2)nn1-c1ccc2ccccc2c1
- Activity (Mus musculus [1]): Non-toxic
- inhibition (Mus musculus [9]): Dose-dependent effect
- ED50 (Mus musculus [9]; 0.5 h): 23.4 mg/kg
- inhibition in vivo at 32 mg/kg (Mus musculus [14]): 62%
- inhibition in vivo at 16 mg/kg (Mus musculus [21]): 43%
- inhibition (Mus musculus [26]): Dose-dependent effect
- ED50 (Mus musculus [26]; 0.75 h): 18.8 mg/kg

From ChEMBL document CHEMBL2169838, “Synthesis and biological evaluation of the 1-arylpyrazole class of σ(1) receptor antagonists: identification of 4-{2-[5-methyl-1-(naphthalen-2-yl)-1H-pyrazol-3-yloxy]ethyl}morpholine (S1RA, E-52862)” (J Med Chem, 2012)
